Test: xn = mol fraction of the nth substance listed
Conditions: 101.3 kPa, Liquid

Cc1ccc(C)cc1 [1,4-dimethylbenzene] + C[S+](C)[O-]
Conditions | mass density [kg/m3]
293.15 K, x1 = 0.0599 | 1077
293.15 K, x1 = 0.1284 | 1052.94
293.15 K, x1 = 0.1944 | 1031.59
293.15 K, x1 = 0.2783 | 1006.68
293.15 K, x1 = 0.3589 | 984.83
293.15 K, x1 = 0.4385 | 965.03
293.15 K, x1 = 0.5032 | 950.09
293.15 K, x1 = 0.5539 | 939.03
293.15 K, x1 = 0.6235 | 924.72
293.15 K, x1 = 0.7023 | 909.62
293.15 K, x1 = 0.7635 | 898.63
293.15 K, x1 = 0.8243 | 888.27
293.15 K, x1 = 0.8831 | 878.73
293.15 K, x1 = 0.9327 | 871.04
303.15 K, x1 = 0.0632 | 1067.37
303.15 K, x1 = 0.1639 | 1032.58
303.15 K, x1 = 0.2343 | 1010.65
303.15 K, x1 = 0.2934 | 993.59
303.15 K, x1 = 0.3513 | 977.92
303.15 K, x1 = 0.425 | 959.33
303.15 K, x1 = 0.4892 | 944.29
303.15 K, x1 = 0.5633 | 928.09
303.15 K, x1 = 0.6398 | 912.58
303.15 K, x1 = 0.7135 | 898.68
303.15 K, x1 = 0.7624 | 889.95
303.15 K, x1 = 0.8243 | 879.44
303.15 K, x1 = 0.8609 | 873.48
303.15 K, x1 = 0.9244 | 863.55
313.15 K, x1 = 0.0662 | 1057.67
313.15 K, x1 = 0.1358 | 1033.11
313.15 K, x1 = 0.1942 | 1014.07
313.15 K, x1 = 0.2578 | 994.8
313.15 K, x1 = 0.3249 | 975.96
313.15 K, x1 = 0.3895 | 959.1
313.15 K, x1 = 0.4509 | 944.13
313.15 K, x1 = 0.5345 | 925.24
313.15 K, x1 = 0.6106 | 909.4
313.15 K, x1 = 0.6719 | 897.46
313.15 K, x1 = 0.754 | 882.52
313.15 K, x1 = 0.8358 | 868.7
313.15 K, x1 = 0.9235 | 854.92
323.15 K, x1 = 0.0573 | 1052.39
323.15 K, x1 = 0.1537 | 1018.34
323.15 K, x1 = 0.2359 | 992.38
323.15 K, x1 = 0.3131 | 970.2
323.15 K, x1 = 0.383 | 951.75
323.15 K, x1 = 0.4509 | 935.12
323.15 K, x1 = 0.5234 | 918.67
323.15 K, x1 = 0.5902 | 904.55
323.15 K, x1 = 0.6618 | 890.43
323.15 K, x1 = 0.7385 | 876.35
323.15 K, x1 = 0.8123 | 863.72
323.15 K, x1 = 0.8832 | 852.33
323.15 K, x1 = 0.9321 | 844.86
333.15 K, x1 = 0.0529 | 1045.49
333.15 K, x1 = 0.1248 | 1019.37
333.15 K, x1 = 0.1944 | 996.31
333.15 K, x1 = 0.265 | 974.86
333.15 K, x1 = 0.3398 | 954.01
333.15 K, x1 = 0.4014 | 938.13
333.15 K, x1 = 0.4624 | 923.43
333.15 K, x1 = 0.5137 | 911.8
333.15 K, x1 = 0.5823 | 897.2
333.15 K, x1 = 0.6582 | 882.18
333.15 K, x1 = 0.731 | 868.78
333.15 K, x1 = 0.8043 | 856.2
333.15 K, x1 = 0.8638 | 846.57
333.15 K, x1 = 0.9247 | 837.2
343.15 K, x1 = 0.0638 | 1032.77
343.15 K, x1 = 0.1398 | 1005.47
343.15 K, x1 = 0.2012 | 985.32
343.15 K, x1 = 0.275 | 963.03
343.15 K, x1 = 0.351 | 942.07
343.15 K, x1 = 0.4132 | 926.22
343.15 K, x1 = 0.4891 | 908.31
343.15 K, x1 = 0.5409 | 896.9
343.15 K, x1 = 0.6148 | 881.67
343.15 K, x1 = 0.6728 | 870.48
343.15 K, x1 = 0.7322 | 859.68
343.15 K, x1 = 0.813 | 845.91
343.15 K, x1 = 0.8732 | 836.29
343.15 K, x1 = 0.9322 | 827.33
353.15 K, x1 = 0.0609 | 1025.3
353.15 K, x1 = 0.1428 | 995.69
353.15 K, x1 = 0.218 | 971.2
353.15 K, x1 = 0.2843 | 951.45
353.15 K, x1 = 0.3598 | 930.79
353.15 K, x1 = 0.4241 | 914.57
353.15 K, x1 = 0.481 | 901.17
353.15 K, x1 = 0.5393 | 888.27
353.15 K, x1 = 0.6042 | 874.83
353.15 K, x1 = 0.6629 | 863.42
353.15 K, x1 = 0.7321 | 850.8
353.15 K, x1 = 0.7832 | 842
353.15 K, x1 = 0.833 | 833.83
353.15 K, x1 = 0.9128 | 821.46

From the NIST ThermoML archive (doi:10.1016/j.jct.2004.04.004)
